Data from ChEMBL document CHEMBL3272010, “Antimycotic imidazoles. 3. Synthesis and antimycotic properties of 1-[2-(aryloxyalkyl)-2-phenylethyl]-1H-imidazoles” (1977).

tested on: Microsporum canis; test: Antifungal activity against Microsporum canis assessed as lowest dose required to total inhibition of fungal growth; format: functional

How did the GI turn out when `Clc1ccc(OCC(Cn2ccnc2)c2ccc(Cl)cc2Cl)cc1.O=[N+]([O-])O` (stereo unspecified) was run?
Its GI is 10 µg/mL.

With `Clc1ccc(OCC(Cn2ccnc2)c2ccc(Cl)cc2)cc1.O=[N+]([O-])O` (stereo unspecified) as the compound, how does the GI read?
Its GI is less than 1 µg/mL.

Which GI does the source give for `Clc1ccc(C(CCCOc2ccccc2)Cn2ccnc2)c(Cl)c1.O=C(O)C(=O)O` (stereo unspecified) here?
Its GI is 10 µg/mL.

`Clc1ccc(OCC(Cn2ccnc2)c2ccc(Cl)cc2Cl)c(Cl)c1.O=[N+]([O-])O` (stereo unspecified) was tested. Which GI did it give?
Its GI is less than 1 µg/mL.

tested on: Trichophyton mentagrophytes; test: Antifungal activity against Trichophyton mentagrophytes assessed as lowest dose required to total inhibition of fungal growth; format: functional

With `Clc1ccc(OCC(Cn2ccnc2)c2ccc(Cl)cc2Cl)cc1.O=[N+]([O-])O` (stereo unspecified) as the compound, how does the GI read?
Its GI is less than 1 µg/mL.

Which GI does the source give for `Clc1ccc(OCC(Cn2ccnc2)c2ccc(Cl)cc2)cc1.O=[N+]([O-])O` (stereo unspecified) here?
Its GI is less than 1 µg/mL.

`Clc1ccc(C(CCCOc2ccccc2)Cn2ccnc2)c(Cl)c1.O=C(O)C(=O)O` (stereo unspecified) was tested. Which GI did it give?
Its GI is less than 1 µg/mL.

For `Clc1ccc(OCC(Cn2ccnc2)c2ccc(Cl)cc2Cl)c(Cl)c1.O=[N+]([O-])O` (stereo unspecified), which GI is on record?
Its GI is less than 1 µg/mL.

tested on: Trichophyton rubrum; test: Antifungal activity against Trichophyton rubrum assessed as lowest dose required to total inhibition of fungal growth; format: functional

`Clc1ccc(OCC(Cn2ccnc2)c2ccc(Cl)cc2Cl)cc1.O=[N+]([O-])O` (stereo unspecified) was tested. Which GI did it give?
The GI was less than 1 µg/mL.

With `Clc1ccc(OCC(Cn2ccnc2)c2ccc(Cl)cc2)cc1.O=[N+]([O-])O` (stereo unspecified) as the compound, how does the GI read?
The GI was less than 1 µg/mL.

`Clc1ccc(C(CCCOc2ccccc2)Cn2ccnc2)c(Cl)c1.O=C(O)C(=O)O` (stereo unspecified) was tested. Which GI did it give?
Its GI is less than 1 µg/mL.

How did the GI turn out when `Clc1ccc(OCC(Cn2ccnc2)c2ccc(Cl)cc2Cl)c(Cl)c1.O=[N+]([O-])O` (stereo unspecified) was run?
The GI was less than 1 µg/mL.

tested on: Cryptococcus neoformans; test: Antifungal activity against Cryptococcus neoformans assessed as lowest dose required to total inhibition of fungal growth; format: functional

`Clc1ccc(OCC(Cn2ccnc2)c2ccc(Cl)cc2Cl)cc1.O=[N+]([O-])O` (stereo unspecified) was tested. Which GI did it give?
Its GI is less than 1 µg/mL.

`Clc1ccc(OCC(Cn2ccnc2)c2ccc(Cl)cc2)cc1.O=[N+]([O-])O` (stereo unspecified) was tested. Which GI did it give?
Its GI is less than 1 µg/mL.

How did the GI turn out when `Clc1ccc(C(CCCOc2ccccc2)Cn2ccnc2)c(Cl)c1.O=C(O)C(=O)O` (stereo unspecified) was run?
Its GI is less than 1 µg/mL.

With `Clc1ccc(OCC(Cn2ccnc2)c2ccc(Cl)cc2Cl)c(Cl)c1.O=[N+]([O-])O` (stereo unspecified) as the compound, how does the GI read?
Its GI is less than 1 µg/mL.

tested on: Candida tropicalis; test: Antifungal activity against Candida tropicalis assessed as lowest dose required to total inhibition of fungal growth; format: functional

`Clc1ccc(OCC(Cn2ccnc2)c2ccc(Cl)cc2Cl)cc1.O=[N+]([O-])O` (stereo unspecified) was tested. Which GI did it give?
Its GI is greater than 100 µg/mL.

How did the GI turn out when `Clc1ccc(OCC(Cn2ccnc2)c2ccc(Cl)cc2)cc1.O=[N+]([O-])O` (stereo unspecified) was run?
The GI was greater than 100 µg/mL.

How did the GI turn out when `Clc1ccc(C(CCCOc2ccccc2)Cn2ccnc2)c(Cl)c1.O=C(O)C(=O)O` (stereo unspecified) was run?
The GI was greater than 100 µg/mL.

With `Clc1ccc(OCC(Cn2ccnc2)c2ccc(Cl)cc2Cl)c(Cl)c1.O=[N+]([O-])O` (stereo unspecified) as the compound, how does the GI read?
The GI was greater than 100 µg/mL.

tested on: Candida albicans; test: Antifungal activity against Candida albicans assessed as lowest dose required to total inhibition of fungal growth; format: functional

For `Clc1ccc(OCC(Cn2ccnc2)c2ccc(Cl)cc2Cl)cc1.O=[N+]([O-])O` (stereo unspecified), which GI is on record?
Its GI is 10 µg/mL.

With `Clc1ccc(OCC(Cn2ccnc2)c2ccc(Cl)cc2)cc1.O=[N+]([O-])O` (stereo unspecified) as the compound, how does the GI read?
Its GI is greater than 100 µg/mL.

`Clc1ccc(C(CCCOc2ccccc2)Cn2ccnc2)c(Cl)c1.O=C(O)C(=O)O` (stereo unspecified) was tested. Which GI did it give?
The GI was greater than 100 µg/mL.

With `Clc1ccc(OCC(Cn2ccnc2)c2ccc(Cl)cc2Cl)c(Cl)c1.O=[N+]([O-])O` (stereo unspecified) as the compound, how does the GI read?
The GI was greater than 100 µg/mL.

tested on: Mucor; test: Antifungal activity against Mucor species assessed as lowest dose required to total inhibition of fungal growth; format: functional

`Clc1ccc(OCC(Cn2ccnc2)c2ccc(Cl)cc2Cl)cc1.O=[N+]([O-])O` (stereo unspecified) was tested. Which GI did it give?
Its GI is 100 µg/mL.

For `Clc1ccc(OCC(Cn2ccnc2)c2ccc(Cl)cc2)cc1.O=[N+]([O-])O` (stereo unspecified), which GI is on record?
The GI was 10 µg/mL.

For `Clc1ccc(C(CCCOc2ccccc2)Cn2ccnc2)c(Cl)c1.O=C(O)C(=O)O` (stereo unspecified), which GI is on record?
Its GI is greater than 100 µg/mL.

For `Clc1ccc(OCC(Cn2ccnc2)c2ccc(Cl)cc2Cl)c(Cl)c1.O=[N+]([O-])O` (stereo unspecified), which GI is on record?
Its GI is greater than 100 µg/mL.

tested on: Aspergillus fumigatus; test: Antifungal activity against Aspergillus fumigatus assessed as lowest dose required to total inhibition of fungal growth; format: functional

Which GI does the source give for `Clc1ccc(OCC(Cn2ccnc2)c2ccc(Cl)cc2Cl)cc1.O=[N+]([O-])O` (stereo unspecified) here?
The GI was 10 µg/mL.

With `Clc1ccc(OCC(Cn2ccnc2)c2ccc(Cl)cc2)cc1.O=[N+]([O-])O` (stereo unspecified) as the compound, how does the GI read?
Its GI is 100 µg/mL.

`Clc1ccc(C(CCCOc2ccccc2)Cn2ccnc2)c(Cl)c1.O=C(O)C(=O)O` (stereo unspecified) was tested. Which GI did it give?
Its GI is 10 µg/mL.

Which GI does the source give for `Clc1ccc(OCC(Cn2ccnc2)c2ccc(Cl)cc2Cl)c(Cl)c1.O=[N+]([O-])O` (stereo unspecified) here?
The GI was greater than 100 µg/mL.

tested on: Sporothrix schenckii; test: Antifungal activity against Sporothrix schenckii assessed as lowest dose required to total inhibition of fungal growth; format: functional

Which GI does the source give for `Clc1ccc(OCC(Cn2ccnc2)c2ccc(Cl)cc2Cl)cc1.O=[N+]([O-])O` (stereo unspecified) here?
The GI was 10 µg/mL.

For `Clc1ccc(OCC(Cn2ccnc2)c2ccc(Cl)cc2)cc1.O=[N+]([O-])O` (stereo unspecified), which GI is on record?
The GI was 10 µg/mL.

How did the GI turn out when `Clc1ccc(C(CCCOc2ccccc2)Cn2ccnc2)c(Cl)c1.O=C(O)C(=O)O` (stereo unspecified) was run?
The GI was less than 1 µg/mL.

Which GI does the source give for `Clc1ccc(OCC(Cn2ccnc2)c2ccc(Cl)cc2Cl)c(Cl)c1.O=[N+]([O-])O` (stereo unspecified) here?
Its GI is less than 1 µg/mL.

tested on: Saprolegnia; test: Antifungal activity against Saprolegnia species assessed as lowest dose required to total inhibition of fungal growth; format: functional

With `Clc1ccc(OCC(Cn2ccnc2)c2ccc(Cl)cc2Cl)cc1.O=[N+]([O-])O` (stereo unspecified) as the compound, how does the GI read?
The GI was 100 µg/mL.

How did the GI turn out when `Clc1ccc(OCC(Cn2ccnc2)c2ccc(Cl)cc2)cc1.O=[N+]([O-])O` (stereo unspecified) was run?
Its GI is 100 µg/mL.

Which GI does the source give for `Clc1ccc(C(CCCOc2ccccc2)Cn2ccnc2)c(Cl)c1.O=C(O)C(=O)O` (stereo unspecified) here?
The GI was 10 µg/mL.

With `Clc1ccc(OCC(Cn2ccnc2)c2ccc(Cl)cc2Cl)c(Cl)c1.O=[N+]([O-])O` (stereo unspecified) as the compound, how does the GI read?
The GI was greater than 100 µg/mL.

tested on: Phialophora verrucosa; test: Antifungal activity against Phialophora verrucosa assessed as lowest dose required to total inhibition of fungal growth; format: functional

How did the GI turn out when `Clc1ccc(OCC(Cn2ccnc2)c2ccc(Cl)cc2Cl)cc1.O=[N+]([O-])O` (stereo unspecified) was run?
Its GI is 10 µg/mL.

With `Clc1ccc(OCC(Cn2ccnc2)c2ccc(Cl)cc2)cc1.O=[N+]([O-])O` (stereo unspecified) as the compound, how does the GI read?
The GI was 100 µg/mL.

How did the GI turn out when `Clc1ccc(C(CCCOc2ccccc2)Cn2ccnc2)c(Cl)c1.O=C(O)C(=O)O` (stereo unspecified) was run?
The GI was 10 µg/mL.

How did the GI turn out when `Clc1ccc(OCC(Cn2ccnc2)c2ccc(Cl)cc2Cl)c(Cl)c1.O=[N+]([O-])O` (stereo unspecified) was run?
The GI was 100 µg/mL.

tested on: Erysipelothrix rhusiopathiae; test: Antibaterial activity against Erysipelothrix insidiosa assessed as lowest dose required to total inhibition of bacterial growth; format: functional

For `Clc1ccc(OCC(Cn2ccnc2)c2ccc(Cl)cc2Cl)cc1.O=[N+]([O-])O` (stereo unspecified), which GI is on record?
Its GI is less than 1 µg/mL.

With `Clc1ccc(OCC(Cn2ccnc2)c2ccc(Cl)cc2)cc1.O=[N+]([O-])O` (stereo unspecified) as the compound, how does the GI read?
Its GI is 1 µg/mL.

Which GI does the source give for `Clc1ccc(C(CCCOc2ccccc2)Cn2ccnc2)c(Cl)c1.O=C(O)C(=O)O` (stereo unspecified) here?
Its GI is less than 1 µg/mL.

Which GI does the source give for `Clc1ccc(OCC(Cn2ccnc2)c2ccc(Cl)cc2Cl)c(Cl)c1.O=[N+]([O-])O` (stereo unspecified) here?
The GI was less than 1 µg/mL.

tested on: Staphylococcus haemolyticus; test: Antibaterial activity against Staphylococcus haemolyticus assessed as lowest dose required to total inhibition of bacterial growth; format: functional

For `Clc1ccc(OCC(Cn2ccnc2)c2ccc(Cl)cc2Cl)cc1.O=[N+]([O-])O` (stereo unspecified), which GI is on record?
Its GI is 10 µg/mL.

How did the GI turn out when `Clc1ccc(OCC(Cn2ccnc2)c2ccc(Cl)cc2)cc1.O=[N+]([O-])O` (stereo unspecified) was run?
The GI was 10 µg/mL.

For `Clc1ccc(C(CCCOc2ccccc2)Cn2ccnc2)c(Cl)c1.O=C(O)C(=O)O` (stereo unspecified), which GI is on record?
Its GI is 10 µg/mL.

`Clc1ccc(OCC(Cn2ccnc2)c2ccc(Cl)cc2Cl)c(Cl)c1.O=[N+]([O-])O` (stereo unspecified) was tested. Which GI did it give?
The GI was 1 µg/mL.

tested on: Streptococcus pyogenes; test: Antibaterial activity against Streptococcus pyogenes assessed as lowest dose required to total inhibition of bacterial growth; format: functional

`Clc1ccc(OCC(Cn2ccnc2)c2ccc(Cl)cc2Cl)cc1.O=[N+]([O-])O` (stereo unspecified) was tested. Which GI did it give?
Its GI is less than 1 µg/mL.

How did the GI turn out when `Clc1ccc(OCC(Cn2ccnc2)c2ccc(Cl)cc2)cc1.O=[N+]([O-])O` (stereo unspecified) was run?
The GI was less than 1 µg/mL.

`Clc1ccc(C(CCCOc2ccccc2)Cn2ccnc2)c(Cl)c1.O=C(O)C(=O)O` (stereo unspecified) was tested. Which GI did it give?
Its GI is less than 1 µg/mL.

Which GI does the source give for `Clc1ccc(OCC(Cn2ccnc2)c2ccc(Cl)cc2Cl)c(Cl)c1.O=[N+]([O-])O` (stereo unspecified) here?
The GI was less than 1 µg/mL.
